Assay results as given in PMC3480435, “Identification, Expression and Activity Analyses of Five Novel Duck Beta-Defensins” (PLoS ONE, 2012).

Tests used:
[1] = system: DHV-1 strain Du/CH/LBJ/090809; conditions: DHV-1 serially diluted, treated with equal volume of 300 µg/mL protein in PBS, 37°C 60 min; 11-day-old SPF duck embryos, observed 7 days; three independent experiments, five replicates
Description: Briefly, the DHV-1 (10^8 median embryo infectious doses, EID50) was serially diluted 10-fold and treated with equal volumes of GST or rAvBDs (300 µg/mL in PBS) at 37°C for 60 min. The mixture was inoculated into 11-day-old specific pathogen free (SPF) duck embryos, with 200 µL administered per duck. The inoculated duck embryos were incubated at 37°C and observed for 7 days. Mortality was recorded every 8 h. […] All antiviral activity assays were performed in three independent experiments, with five replicates per experiment.

[2] = system: 12 bacteria (four Gram-positive and eight Gram-negative strains); conditions: colony counting, 10-100 µg/mL in PBS, 3 h preincubation then 12-18 h; % of CFU of unexposed bacteria; mean of three independent experiments, three replicates each; Fig. 3
Description: The antimicrobial activities of both rAvBD and sAvBD were determined by colony counting assay. Briefly, a 10 µL of diluted bacterial culture (diluted 1000-fold in the appropriate medium) was treated with 250 µL of rAvBD or sAvBD (0 to 100 µg/mL in PBS) in polypropylene microtiter plates and preincubated for 3 h at conditions suited to the investigated strain; 100 µL of minimal medium was added after 3 h and the plates were incubated for 12–18 h further. Then, the sample was rediluted 100-to-10^6-fold in minimal medium, transferred to TSA plates and colonies were counted after 24 h of incubation. Bactericidal activity was calculated as a percentage of CFU of bacteria not exposed to antimicrobial peptides but subjected to the same experimental conditions. Results from the antimicrobial assay represent the mean of the three independent experiments, with three replicates per experiment.

Substance: glutathione-S-transferase [GST]
- survival time of duck embryos inoculated with treated DHV [1]: little effect
- bactericidal activity against all of the bacterial strains investigated [2]: no bactericidal activity
